Test results as given in publication PMC7570844, “Skin Damages—Structure Activity Relationship of Benzimidazole Derivatives Bearing a 5-Membered Ring System” (Molecules, 2020).
Converted amounts (≈) assume the structure as drawn. “And” between values parts separate entries of the source, which are not always exact repeats. Identical values can stand only once.

How the values were obtained:
[1] = test system: human pancreatic carcinoma cells (Mia Paca-2); experiment: Cell proliferation inhibition
Epidermophyton floccosum = experiment: Antidermatophyte plaque growth inhibition; assay type: cell-based
[2] = Ferric reducing antioxidant power (FRAP) test; settings: mean ± SEM
vaccinia virus = experiment: microbe, parasite or virus in culture; assay type: cell-based; settings: Orthopoxvirus vaccinia, HEL, read-out: Antiviral EC50
Microsporum canis = experiment: Antidermatophyte plaque growth inhibition; assay type: cell-based
[3] = test system: Respiratory syncytial virus; experiment: microbe, parasite or virus in culture; assay type: cell-based; settings: human respiratory syncytial virus, HeLa cells, read-out: Antiviral EC50
[4] = DPPH radical scavenging test; settings: mean ± SEM
Microsporum gypseum = experiment: Antidermatophyte plaque growth inhibition; assay type: cell-based; settings: Nannizzia gypsea
[5] = UV filtering parameters of cosmetic formulation on PMMA plates (modified Diffey-Robson); assay type: physicochemical
[6] = test system: human embryonic lung (HEL) cell cultures
Human Coronavirus (229E) = experiment: microbe, parasite or virus in culture; assay type: cell-based; settings: HEL, read-out: Antiviral EC50
[7] = test system: herpes simplex virus-2 (G); experiment: Antiviral activity in HEL cell cultures (CPE, MTS); assay type: cell-based; settings: Human alphaherpesvirus 2; Herpes simplex virus-2, HEL cells
[8] = test system: HEK293T (Normal Kidney Epithelial Cells); experiment: Cell proliferation inhibition, non-cancer control cells; settings: Homo sapiens, HEK-293T
[9] = UV filtering parameters of compounds in solution (MeOH, 290-400 nm)
[10] = test system: human melanoma cells (SK-Mel 5); experiment: Cell proliferation inhibition
HeLa cell cultures = settings: human
[11] = test system: human T-lymphocyte cells (CEM); experiment: Cell proliferation inhibition
[12] = test system: M. gypseum, M. canis, T. mentagrophytes, T. tonsurans and E. floccosum; experiment: Antidermatophyte activity, all five dermatophytes taken together; assay type: cell-based
Coxsackie virus B4 = experiment: Antiviral activity in HeLa cell cultures (CPE, MTS); assay type: cell-based; settings: Enterovirus B; Coxsackie virus B4, HeLa cells
[13] = test system: human cervical carcinoma cells (HeLa); experiment: Cell proliferation inhibition
[14] = test system: herpes simplex virus-1 TK-KOS ACVr; experiment: microbe, parasite or virus in culture; assay type: cell-based; settings: Human alphaherpesvirus 1, HEL, read-out: Antiviral EC50
Adeno virus-2 = experiment: Antiviral activity in HEL cell cultures (CPE, MTS); assay type: cell-based; settings: Adeno virus-2, HEL cells
[15] = test system: vesicular stomatitis virus; experiment: microbe, parasite or virus in culture; assay type: cell-based; settings: HeLa, read-out: Antiviral EC50
Trichophyton tonsurans = experiment: Antidermatophyte plaque growth inhibition; assay type: cell-based
[16] = test system: herpes simplex virus-1 (KOS); experiment: Antiviral activity in HEL cell cultures (CPE, MTS); assay type: cell-based; settings: Human alphaherpesvirus 1, HEL cells
[17] = test system: Trichophyton mentagrophytes; experiment: Antidermatophyte plaque growth inhibition; assay type: cell-based

c1c[nH]c(-c2nc3ccccc3[nH]2)c1 [Compound 10, 2-(1H-pyrrol-2-yl)-1H-benzimidazole]
IC50 [1]: 15 ± 9 µM | IC50 (Epidermophyton floccosum; E. floccosum growth, read-out: IC50): 1.07 ± 0.03 µg/mL (≈ 5.84 µM) | inhibition at 100 µg/mL (Epidermophyton floccosum; E. floccosum, 100 µg/mL, '+' has no key, read-out: Percent growth inhibition): 102 ± 4.92% | FRAP [2]: 1085.57 ± 0.88 µmolTE/g | EC50 (vaccinia virus): > 100 µM | IC50 (Microsporum canis; M. canis growth, read-out: IC50): 1.34 ± 0.02 µg/mL (≈ 7.31 µM) | inhibition at 100 µg/mL (Microsporum canis; M. canis, 100 µg/mL, '+' has no key, read-out: Percent growth inhibition): 96.8 ± 3.56% | EC50 [3]: > 100 µM | DPPH IC50 [4]: 64.098 µg/mL and 64.10 ± 3.21 µg/mL | IC50 (Microsporum gypseum; M. gypseum growth, read-out: IC50): 1.53 ± 0.05 µg/mL (≈ 8.35 µM) | inhibition at 100 µg/mL (Microsporum gypseum; M. gypseum, 100 µg/mL, '+' has no key, read-out: Percent growth inhibition): 99.1 ± 1.33% | SPF ([5]; 1% in formulation): 2.44 | UVA/UVB ([5]; 1% in formulation): 0.70 | UVAPF ([5]; 1% in formulation): 1.16 | λc ([5]; 1% in formulation): 341 nm | SPF ([5]; 2% in formulation): 2.72 | UVA/UVB ([5]; 2% in formulation): 0.73 | UVAPF ([5]; 2% in formulation): 1.32 | λc ([5]; 2% in formulation): 357 nm | SPF ([5]; 3% in formulation): 3.06 | UVA/UVB ([5]; 3% in formulation): 0.75 | UVAPF ([5]; 3% in formulation): 1.54 | λc ([5]; 3% in formulation): 364 nm | Cytotoxic concentration [6]: > 100 µM | EC50 (Human Coronavirus (229E)): > 100 µM | EC50 [7]: > 100 µM | IC50 [8]: 31 ± 3 µM | UVA/UVB [9]: 0.02 | UVAPF [9]: 1.16±0.05 | λc (critical wavelength) [9]: 325 nm | IC50 [10]: 9.7 ± 1.7 µM | Cytotoxic concentration (HeLa cell cultures): > 100 µM | melting point: > 250 °C | IC50 [11]: 14 ± 1 µM | Activity on dermatophytes (in words) ([12]; 100 µg/mL): fungicide activity | inhibition at 100 µg/mL ([12]; 100 µg/mL, all five dermatophytes, read-out: Percentage of growth inhibition over the five dermatophytes): ~100% | IC50 ([12]; all five dermatophytes, read-out: IC50 range over the five dermatophytes): 0.97 to 3.8 µg/mL (≈ 5.29 to 20.7 µM) | EC50 (Coxsackie virus B4): > 100 µM | IC50 [13]: 37 µM | EC50 [14]: > 100 µM | EC50 (Adeno virus-2): > 100 µM | EC50 [15]: > 100 µM | IC50 (Trichophyton tonsurans; T. tonsurans growth, read-out: IC50): 0.97 ± 0.06 µg/mL (≈ 5.29 µM) | inhibition at 100 µg/mL (Trichophyton tonsurans; T. tonsurans, 100 µg/mL, '+' has no key, read-out: Percent growth inhibition): 96.97 ± 0.62% | EC50 [16]: > 100 µM | IC50 ([17]; T. mentagrophytes growth, read-out: IC50): 1.38 ± 0.08 µg/mL (≈ 7.53 µM) | inhibition at 100 µg/mL ([17]; T. mentagrophytes, 100 µg/mL, '+' has no key, read-out: Percent growth inhibition): 96.3 ± 2.42%

Nc1nc2c(ncn2COCCO)c(=O)[nH]1 [Acyclovir, reference compound]
EC50 (vaccinia virus): > 250 µM | Cytotoxic concentration [6]: > 250 µM | EC50 [7]: 0.6 µM | EC50 [14]: 2 µM | EC50 [16]: 0.6 µM

Nc1ccn(C[C@@H](CO)OCP(=O)(O)O)c(=O)n1 [Cidofovir, reference compound]
EC50 (vaccinia virus): 50 µM | Cytotoxic concentration [6]: > 250 µM | EC50 [7]: 3.4 µM | EC50 [14]: 2.8 µM | EC50 (Adeno virus-2): 10 µM | EC50 [16]: 4.5 µM

Nc1nc(O)c2ncn(COC(CO)CO)c2n1 [Ganciclovir, reference compound]
EC50 (vaccinia virus): > 100 µM | Cytotoxic concentration [6]: > 250 µM | EC50 [7]: 0.01 µM | EC50 [14]: 0.2 µM | EC50 [16]: 0.01 µM

O=c1[nH]c(=O)n([C@H]2C[C@H](O)[C@@H](CO)O2)cc1/C=C/Br [Birivudin, Brivudin, reference compound]
EC50 (vaccinia virus): 5.8 µM | Cytotoxic concentration [6]: > 250 µM | EC50 [14]: 0.1 µM | EC50 [16]: 0.01 µM

O=C(O)/C=C/c1ccc(O)c(O)c1 [Caffeic acid, reference compound]
FRAP [2]: 10156.12 ± 15.5 µmolTE/g | DPPH (% Inhibition) ([4]; tested concentration 0.0105 mg/mL): 81.35 ± 0.35%
